Measured values reported in article PMC4319983, “PE859, a Novel Tau Aggregation Inhibitor, Reduces Aggregated Tau and Prevents Onset and Progression of Neural Dysfunction In Vivo” (PLoS ONE, 2015).

Target: T1, tau (microtubule-associated protein tau) (Homo sapiens, UniProt P10636)
T1 construct: gene MAPT
Experiment: ThT fluorescence assay of heparin-induced aggregation of recombinant tau; 3RMBD result confirmed by TEM and CD
Format: biochemical
From the text: ThT fluorescence assay of heparin-induced aggregation of recombinant tau; 3RMBD result confirmed by TEM and CD on tau (microtubule-associated protein tau) | PE859 inhibited the heparin-induced aggregation of both 3RMBD and full length tau in a concentration-dependent manner.

T1 sequence (P10636 150-247 isoform P10636-3): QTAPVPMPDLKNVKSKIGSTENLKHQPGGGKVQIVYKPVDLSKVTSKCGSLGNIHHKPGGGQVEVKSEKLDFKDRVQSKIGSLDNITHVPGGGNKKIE

IC50: 810 nM
Compound: COc1cc(OCc2ccccn2)ccc1/C=C/c1cc(/C=C/c2ccc3cc[nH]c3c2)[nH]n1 [PE859, 3-[(1E)-2-(1H-indol-6-yl)ethenyl]-5-[(1E)-2-[2-methoxy-4-(2-pyridylmethoxy)phenyl]ethenyl]-1H-pyrazole]
